target: T1, BACE2 (Homo sapiens, UniProt Q9Y5Z0); test: Fluorescent-peptide cleavage assay for BACE2 inhibition; assay type: biochemical; settings: BACE2 enzyme ectodomain, fluorescent peptide WS EVNLD AEFRC-MR121, assay buffer pH 4.5, room temperature
T1 construct: BACE2 enzyme ectodomain (derived from plasmid “pET17b-T7-hu proBACE2”) was prepared as described in Ostermann et al; T7 tag (N); made in house
T1 sequence (Q9Y5Z0 21-473 limits assumed): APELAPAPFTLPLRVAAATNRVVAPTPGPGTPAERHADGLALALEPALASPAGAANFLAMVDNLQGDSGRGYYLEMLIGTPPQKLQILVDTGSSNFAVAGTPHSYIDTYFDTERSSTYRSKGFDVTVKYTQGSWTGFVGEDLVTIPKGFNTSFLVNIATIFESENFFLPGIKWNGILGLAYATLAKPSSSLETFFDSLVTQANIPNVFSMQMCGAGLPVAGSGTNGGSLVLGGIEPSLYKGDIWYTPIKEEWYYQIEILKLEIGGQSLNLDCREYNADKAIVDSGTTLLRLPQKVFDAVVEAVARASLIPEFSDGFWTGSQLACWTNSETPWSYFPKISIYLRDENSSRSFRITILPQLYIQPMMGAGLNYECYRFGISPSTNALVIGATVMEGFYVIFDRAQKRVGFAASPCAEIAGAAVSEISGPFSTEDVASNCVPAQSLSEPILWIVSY
Method: Fluorescent-Peptide Cleavage Assay for BACE2 Inhibition
The pro-enzyme was stored at 4° C. at a concentration of 70 μg/ml.
A fluorescent peptide with the amino acid sequence WS EVNLD AEFRC-MR121 was synthesised and a stock solution of 1.5 mM in DMSO prepared and stored at −20° C. MR121 is a fluorophore with an excitation wavelength of 630 nm and emission wavelength of 695 nm. The MR121 fluorescence is quenched by the N-terminal tryptophan until the peptide is cleaved by BACE2.
Assays were all made in a Corning 384-well black polystyrene non-binding surface microtitre plate with clear flat bottom and using a Plate:Vision (Perkin Elmer) fluorescence reader. To perform the assay an 80 nM solution of BACE2 was prepared in assay buffer (assay buffer is 100 mM Na-acetate; 20 mM EDTA; 0.05% BSA; pH 4.5) and incubated at room temperature for 1 hour to activate the enzyme. 39 μl of the activated BACE2 was placed in each assay well, followed by 1 μl compound to be tested at an appropriate concentration in 100% DMSO. The plate was then mixed and incubated for 10 minutes at room temperature.
The assay readout is the rate of change of fluorescence intensity giving a relative measure of BACE2 activity. Small values correspond to high inhibition and larger values to low inhibition. […] IC50 values were determined using these assay values generated for a range of inhibitor concentrations and the curve fitting software XLfit (IDBS) using the Sigmoidal Dose-Response Model.

IC50 [µM] | Structure (SMILES)
0.16 | COc1cccnc1C(=O)Nc1cccc([C@]2(C)CC(=O)N(C)C(N)=N2)c1 [Example 65, 3-Methoxy-pyridine-2-carboxylic acid [3-((S)-2-amino-1,4-dimethyl-6-oxo-1,4,5,6-tetrahydro-pyrimidin-4-yl)-phenyl]-amide]
0.098 | Cc1nc(C(=O)Nc2cccc([C@]3(C)CC(=O)N(C)C(N)=N3)c2)c(C)o1 [Example 4, 2,5-Dimethyl-oxazole-4-carboxylic acid [3-((S)-2-amino-1,4-dimethyl-6-oxo-1,4,5,6-tetrahydro-pyrimidin-4-yl)-phenyl]amide]
0.018 | CN1C(=O)C[C@@](C)(c2cccc(NC(=O)c3ccc(F)cn3)c2)N=C1N [Example 27, 5-Fluoro-pyridine-2-carboxylic acid [3-((S)-2-amino-1,4-dimethyl-6-oxo-1,4,5,6-tetrahydro-pyrimidin-4-yl)-phenyl]amide]
0.02 | CN1C(=O)C(C)(C)[C@@](C)(c2cccc(NC(=O)c3ccc(Cl)cn3)c2)N=C1N [Example 94, 5-Chloro-pyridine-2-carboxylic acid [3-((R)-2-amino-1,4,5,5-tetramethyl-6-oxo-1,4,5,6-tetrahydro-pyrimidin-4-yl)-phenyl]amide]
0.018 | CN1C(=O)C[C@@](C)(c2cccc(NC(=O)c3ncccc3Cl)c2)N=C1N [Example 28, 3-Chloro-pyridine-2-carboxylic acid [3-((S)-2-amino-1,4-dimethyl-6-oxo-1,4,5,6-tetrahydro-pyrimidin-4-yl)-phenyl]amide]
0.02 | CN1C(=O)C(C)(C)[C@@](C)(c2cc(NC(=O)c3ccc(C(F)(F)F)cn3)ccc2F)N=C1N [Example 110, 5-Trifluoromethyl-pyridine-2-carboxylic acid [3-((S)-2-amino-1,4,5,5-tetramethyl-6-oxo-1,4,5,6-tetrahydro-pyrimidin-4-yl)-4-fluoro-phenyl]amide]
0.028 | CN1C(=O)C(C)(C)[C@@](C)(c2cc(NC(=O)c3ncc(Cl)cn3)ccc2F)N=C1N [Example 106, 5-Chloro-pyrimidine-2-carboxylic acid [3-((S)-2-amino-1,4,5,5-tetramethyl-6-oxo-1,4,5,6-tetrahydro-pyrimidin-4-yl)-4-fluoro-phenyl]amide]
0.042 | CN1C(=O)C[C@@](C)(c2cccc(NC(=O)c3c[nH]c(=O)cn3)c2)N=C1N [Example 36, 5-Oxo-4,5-dihydro-pyrazine-2-carboxylic acid [3-((S)-2-amino-1,4-dimethyl-6-oxo-1,4,5,6-tetrahydro-pyrimidin-4-yl)-phenyl]-amide]
0.019 | CN1C(=O)C(C)(C)[C@@](C)(c2cc(NC(=O)c3ncc(C(F)(F)F)cc3Cl)ccc2F)N=C1N [Example 118, 3-Chloro-5-trifluoromethyl-pyridine-2-carboxylic acid [3-((S)-2-amino-1,4,5,5-tetramethyl-6-oxo-1,4,5,6-tetrahydro-pyrimidin-4-yl)-4-fluoro-phenyl]amide]
1.55 | CN1C(=O)C[C@@](C)(c2cccc(NC(=O)c3csc(C(F)(F)F)n3)c2)N=C1N [Example 66, 2-Trifluoromethyl-thiazole-4-carboxylic acid [3-((S)-2-amino-1,4-dimethyl-6-oxo-1,4,5,6-tetrahydro-pyrimidin-4-yl)-phenyl]-amide]
1.67 | CN1C(=O)C[C@]2(CCc3ccc(NC(=O)c4ccccn4)cc32)N=C1N [Example 128, N-[(1S)-2′-amino-1′-methyl-6′-oxo-2,3,5′,6′-tetrahydro-1′H-spiro[indene-1,4′-pyrimidin]-6-yl]pyridine-2-carboxamide]
0.015 | CCN1C(=O)C[C@@](C)(c2cccc(NC(=O)c3ccc(Cl)cn3)c2)N=C1N [Example 49, 5-Chloro-pyridine-2-carboxylic acid [3-((S)-2-amino-1-ethyl-4-methyl-6-oxo-1,4,5,6-tetrahydro-pyrimidin-4-yl)-phenyl]amide]
